Results published in US7601868B2, “Amine derivative” (Takeda Pharmaceutical Company Limited, priority 2003, dated 2009).

Structure (SMILES)	melting point
O=C(NCCc1ccc(CN2CCCC2)cc1)N1CCC(c2ccc(Cl)cc2)CC1 [Example 1, 4-(4-chlorophenyl)-N-{2-[4-(1-pyrrolidinylmethyl)phenyl]ethyl}-1-piperidinecarboxamide]	116 to 117 °C
CC(c1ccc(CCNC(=O)c2ccc(Br)cc2)cc1)N1CCCC1 (stereo not shown) [Example 10, 4-bromo-N-(2-{4-[1-(1-pyrrolidinyl)ethyl]phenyl}ethyl)benzamide]	124 to 126 °C
COc1ccc(-c2ccc(C(=O)NCCc3ccc(C(C)N4CCCC4)cc3)cc2)cc1 (stereo not shown) [Example 12, 4′-methoxy-N-(2-{4-[1-(1-pyrrolidinyl)ethyl]phenyl}ethyl)[1,1′-biphenyl]-4-carboxamide]	163 to 165 °C
CC(c1ccc(CCNC(=O)c2ccc(-c3ccc(F)cc3)cc2)cc1)N1CCCC1 (stereo not shown) [Example 13, 4′-fluoro-N-(2-{4-[1-(1-pyrrolidinyl)ethyl]phenyl}ethyl)[1,1′-biphenyl]-4-carboxamide]	141 to 143 °C
Cc1ccc(-c2ccc(C(=O)NCCc3ccc(C(C)N4CCCC4)cc3)cc2)cc1 (stereo not shown) [Example 14, 4′-methyl-N-(2-{4-[1-(1-pyrrolidinyl)ethyl]phenyl}ethyl)[1,1′-biphenyl]-4-carboxamide]	160 to 163 °C
CC(c1ccc(CCNC(=O)c2ccc(-c3ccc(C(F)(F)F)cc3)cc2)cc1)N1CCCC1 (stereo not shown) [Example 15, N-(2-{4-[1-(1-pyrrolidinyl)ethyl]phenyl}ethyl)-4′-(trifluoromethyl)[1,1′-biphenyl]-4-carboxamide]	149 to 151 °C
CC(c1ccc(CCNC(=O)c2ccc(-c3ccccc3)cc2)cc1)N1CCCC1 (stereo not shown) [Example 31, N-(2-{4-[1-(1-pyrrolidinyl)ethyl]phenyl}ethyl)[1,1′-biphenyl]-4-carboxamide]	136 to 138 °C
CCC(c1ccc(CCNC(=O)c2ccc(Br)cc2)cc1)N1CCCC1 (stereo not shown) [Example 32, 4-bromo-N-(2-{4-[1-(1-pyrrolidinyl)propyl]phenyl}ethyl)benzamide]	90 to 92 °C
CCC(c1ccc(CCNC(=O)c2ccc(-c3ccc(Cl)cc3)cc2)cc1)N1CCCC1 (stereo not shown) [Example 33, 4′-chloro-N-(2-{4-[1-(1-pyrrolidinyl)propyl]phenyl}ethyl)[1,1′-biphenyl]-4-carboxamide]	151 to 153 °C
CC(C)C(c1ccc(CCNC(=O)c2ccc(-c3ccc(Cl)cc3)cc2)cc1)N1CCCC1 (stereo not shown) [Example 36, 4′-chloro-N-(2-{4-[2-methyl-1-(1-pyrrolidinyl)propyl]phenyl}ethyl)[1,1′-biphenyl]-4-carboxamide]	143 to 145 °C
CC(c1ccc(CCNC(=O)c2ccc(-c3ccc(Cl)cc3)cc2)cc1)N1CCSCC1 (stereo not shown) [Example 37, 4′-chloro-N-(2-{4-[1-(4-thiomorpholinyl)ethyl]phenyl}ethyl)[1,1′-biphenyl]-4-carboxamide]	168 to 169 °C
CN1CCCC1c1ccc(CCNC(=O)c2ccc(-c3ccc(Cl)cc3)cc2)cc1 (stereo not shown) [Example 137, 4′-chloro-N-{2-[4-(1-methyl-2-pyrrolidinyl)phenyl]ethyl}[1,1′-biphenyl]-4-carboxamide]	169 to 171 °C
COc1ccc(-c2ccc(C(=O)NCCc3ccc(C4CCCN4C)cc3)cc2)cc1 (stereo not shown) [Example 139, 4′-methoxy-N-{2-[4-(1-methyl-2-pyrrolidinyl)phenyl]ethyl}[1,1′-biphenyl]-4-carboxamide]	165 to 167 °C
O=C(NCCc1ccc(CN2CCCC2)cc1)c1ccc(OCC2CC2)cc1F [Example 140, 4-cyclopropylmethoxy-2-fluoro-N-{2-[4-(1-pyrrolidinylmethyl)phenyl]ethyl}benzamide]	90 to 92 °C
O=C(NCCc1ccc(CN2CCCC2)cc1)c1ccc(OCCC2CC2)cc1F [Example 141, 4-(2-cyclopropylethoxy)-2-fluoro-N-{2-[4-(1-pyrrolidinylmethyl)phenyl]ethyl}benzamide]	66 to 68 °C
O=C(Cc1ccc(CN2CCCC2)cc1)NCc1ccc(Br)cc1 [Reference Example 38, N-(4-bromobenzyl)-2-[4-(1-pyrrolidinylmethyl)phenyl]acetamide]	107 to 109 °C
O=C(CCc1ccc(CN2CCCC2)cc1)Nc1ccc(Br)cc1 [Reference Example 41, N-(4-bromophenyl)-3-[4-(1-pyrrolidinylmethyl)phenyl]propanamide]	137 to 138 °C
O=C(/C=C/c1ccc(CN2CCCC2)cc1)Nc1ccc(Br)cc1 [Reference Example 43, (E)-N-(4-bromophenyl)-3-[4-(1-pyrrolidinylmethyl)phenyl]-2-propenamide]	184 to 186 °C
O=C(COc1ccc(CN2CCCC2)cc1)Nc1ccc(Br)cc1 [Reference Example 46, N-(4-bromophenyl)-2-[4-(1-pyrrolidinylmethyl)phenoxy]acetamide]	143 to 145 °C

Second part, the molecule after the results:

melting point	Structure (SMILES)
91 to 93 °C	CCCCCc1ccc(C(=O)NCCc2ccc(CN3CCCC3)cc2)cc1 [Example 3, 4-pentyl-N-{2-[4-(1-pyrrolidinylmethyl)phenyl]ethyl}benzamide]
115 to 117 °C	CCCC(=O)Cc1ccc(C(=O)NCCc2ccc(CN3CCCC3)cc2)cc1 [Example 4, 4-(2-oxopentyl)-N-{2-[4-(1-pyrrolidinylmethyl)phenyl]ethyl}benzamide]
80 to 82 °C	CC(CNC(=O)c1ccc(Br)cc1F)c1ccc(CN2CCCC2)cc1 (stereo not shown) [Example 5, 4-bromo-2-fluoro-N-{2-[4-(1-pyrrolidinylmethyl)phenyl]propyl}benzamide]
119 to 121 °C	CC(CNC(=O)c1ccc(-c2ccc(Cl)cc2)cc1F)c1ccc(CN2CCCC2)cc1 (stereo not shown) [Example 6, 4′-chloro-3-fluoro-N-{2-[4-(1-pyrrolidinylmethyl)phenyl]propyl}[1,1′-biphenyl]-4-carboxamide]
156 to 157 °C	CC(CNC(=O)c1ccc(-c2ccc(Cl)cc2)cc1)c1ccc(CN2CCCC2)cc1 (stereo not shown) [Example 8, 4′-chloro-N-{2-[4-(1-pyrrolidinylmethyl)phenyl]propyl}[1,1′-biphenyl]-4-carboxamide]
91 to 92 °C	CCCCCc1ccc(C(=O)NCC(C)c2ccc(CN3CCCC3)cc2)cc1 (stereo not shown) [Example 9, 4-pentyl-N-{2-[4-(1-pyrrolidinylmethyl)phenyl]propyl}benzamide]
152 to 153 °C	CC(c1ccc(CCNC(=O)c2ccc(-c3ccc(Cl)cc3)cc2)cc1)N1CCCC1 (stereo not shown) [Example 11, 4′-chloro-N-(2-{4-[1-(1-pyrrolidinyl)ethyl]phenyl}ethyl)[1,1′-biphenyl]-4-carboxamide]
135 to 137 °C	CC(c1ccc(CCNC(=O)c2ccc(-c3ccc(OC(F)(F)F)cc3)cc2)cc1)N1CCCC1 (stereo not shown) [Example 16, N-(2-{4-[1-(1-pyrrolidinyl)ethyl]phenyl}ethyl)-4′-(trifluoromethoxy)[1,1′-biphenyl]-4-carboxamide]
76 to 77 °C	CCCCCc1ccc(C(=O)NCCc2ccc(C(C)N3CCCC3)cc2)cc1 (stereo not shown) [Example 38, 4-pentyl-N-(2-{4-[1-(1-pyrrolidinyl)ethyl]phenyl}ethyl)benzamide]
143 to 145 °C	CN1CCCC1c1ccc(CCNC(=O)c2ccc(OCC3CC3)cc2)cc1 (stereo not shown) [Example 138, 4-cyclopropylmethoxy-N-{2-[4-(1-methyl-2-pyrrolidinyl)phenyl]ethyl}benzamide]
151 to 153 °C	O=C(Cc1ccc(CN2CCCC2)cc1)NCc1ccc(-c2ccc(Cl)cc2)cc1 [compound 39, N-[(4′-chloro-1,1′-biphenyl-4-yl)methyl]-2-[4-(1-pyrrolidinylmethyl)phenyl]acetamide]
104 to 105 °C	CCCCCc1ccc(NC(=O)CCc2ccc(CN3CCCC3)cc2)cc1 [compound 40, N-(4-pentylphenyl)-3-[4-(1-pyrrolidinylmethyl)phenyl]propanamide]
179 to 181 °C	O=C(CCc1ccc(CN2CCCC2)cc1)Nc1ccc(-c2ccc(Cl)cc2)cc1 [compound 42, N-(4′-chloro-1,1′-biphenyl-4-yl)-3-[4-(1-pyrrolidinylmethyl)phenyl]propanamide]
207 to 209 °C	O=C(/C=C/c1ccc(CN2CCCC2)cc1)Nc1ccc(-c2ccc(Cl)cc2)cc1 [compound 44, (E)-N-(4′-chloro-1,1′-biphenyl-4-yl)-3-[4-(1-pyrrolidinylmethyl)phenyl]-2-propenamide]
187 to 189 °C	O=C(NCCc1ccc(-c2ccc(Cl)cc2)cc1)c1ccc(CN2CCCC2)cc1 [compound 45, N-[2-(4′-chloro-1,1′-biphenyl-4-yl)ethyl]-4-(1-pyrrolidinylmethyl)benzamide]
